From publication PMC12579162, “Synthesized Depside Molecules Suppress the Progression of Colorectal Cancer by Binding VDAC1/PHB/MMP9 Being at the Crossroads of Stemness, Motility, Apoptosis, and Metabolism” (MedComm, 2025)

What was measured:
Assay type in all cases: cell-based
[1] = tested on: CT26 cells; experiment: MTT cell viability, CT26; settings: Mus musculus, 48 h, MTT assay
Experimental: (§1) Cells (3 × 10^3 cells/well) were seeded on a 96‐well plate, grown overnight, and then treated with compounds at indicated concentrations for 48 h. After incubation with MTT for 4 h at 37°C, cells were lysed with 150 µL of DMSO (Sigma–Aldrich, St. Louis, USA). Absorbance was measured at 570 nm on a microplate reader with the Gen5 software (v.2.03.1; BioTek, Winooski, VT, USA).

[2] = tested on: HEK293T cells; experiment: MTT cell viability, HEK293T; settings: Homo sapiens, HEK-293T; 48 h, MTT assay
Experimental: as §1

[3] = tested on: MCF10A cells; experiment: MTT cell viability, MCF10A; settings: Homo sapiens, MCF-10A; 48 h, MTT assay
Experimental: as §1

[4] = tested on: HCT116 cells; experiment: MTT cell viability, HCT116; settings: Homo sapiens, HCT-116; 48 h, MTT assay
Experimental: as §1

[5] = tested on: SW620 cells; experiment: MTT cell viability, SW620; settings: Homo sapiens, SW-620; 48 h, MTT assay
Experimental: as §1

[6] = tested on: DLD1 cells; experiment: MTT cell viability, DLD1; settings: Homo sapiens, DLD-1; 48 h, MTT assay
Experimental: as §1

[7] = tested on: HaCaT cells; experiment: MTT cell viability, HaCaT; settings: Homo sapiens, 48 h, MTT assay
Experimental: as §1

[8] = tested on: CSC221 cells; experiment: MTT cell viability, CSC221; settings: Homo sapiens; 48 h, MTT assay
Experimental: as §1

[9] = tested on: BEAS-2B cells; experiment: MTT cell viability, BEAS-2B; settings: Homo sapiens, 48 h, MTT assay
Experimental: as §1

[10] = tested on: HT29 cells; experiment: MTT cell viability, HT29; settings: Homo sapiens, HT-29; 48 h, MTT assay
Experimental: as §1

[11] = tested on: CaCo2 cells; experiment: MTT cell viability, CaCo2; settings: Homo sapiens, Caco-2; 48 h, MTT assay
Experimental: as §1

[12] = tested on: spheroid formation; experiment: Spheroid formation, comparison with known MMP inhibitor (Figure S10); settings: 10 µM, 10–14 days
Experimental: Monolayer cells were separated into single‐cell suspensions at around 70% confluence using a solution of trypsin. After that, the cells were added to N2‐supplemented DMEM/F12 that contained human basal fibroblast growth factor and human recombinant epidermal growth factor. Cells seeded at a density of 5 × 10^3 cells/well in ultra‐low attachment 24‐well plates (Corning Inc., Corning, NY, USA). After 10–14 days of culture, spheres were quantitated by inverted phase contrast microscopy. The relative sphere formation ability was calculated through the IMT iSolution software (IMT iSolution Inc., Northampton, NJ, USA) measuring the pixel intensity of the sphere area randomly in each plate.
Supplementary Figure S10. Comparison of the effects of novel VDAC1/PHB/MMP9 binding compounds and known MMP inhibitor on spheroid formation. Cells were exposed to the compound at 5 μM concentration of SB4 or SB5 and 10 μM of MMP inhibitor (GM 6001, ilomastat) for 10-14 days. The histogram represents spheroid formation, calculated as rate relative to vehicle-treated control, and represented as bar graphs. *p < 0.05; **p < 0.01; ***p < 0.001; NS, no significant difference between compared groups.

SMILES: COc1cc(C)c(C(=O)Oc2cc(C)c(C(=O)O)c(O)c2C)c(OC)c1C [DA, diffractaic acid, reference compound]
- IC50 [1]: 46.2 µM
- IC50 [2]: 121 µM
- IC50 [3]: 146 µM
- IC50 [4]: 49.1 µM
- IC50 [5]: 46.2 µM
- IC50 [6]: 64.1 µM
- IC50 [7]: 84.2 µM
- IC50 [8]: 133 µM
- IC50 [9]: 54.3 µM
- IC50 [10]: 62.8 µM
- IC50 [11]: 90.5 µM

SMILES: CNC(=O)[C@H](Cc1c[nH]c2ccccc12)NC(=O)[C@@H](CC(=O)NO)CC(C)C [GM 6001, ilomastat]
- spheroid formation [12]: no effect on inhibition of spheroid formation
